Reference: US9504669B2, “Spliceostatin analogs and methods for their preparation” (PFIZER INC., priority 2012, dated 2016)

Experiments:
Type in all cases: cell-based
Details in all cases: free compounds (natural products and synthetic analogs), cell viability 96 hours after treatment
[1] = test system: MDA-MB-361-DYT2 (breast cancer) cells; experiment: In vitro cell assay (MTS cell viability), MDA-MB-361-DYT2
Procedure, shortened: (§1)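 Cells seeded 24 h, then treated with antibody-drug conjugates or free drug, 3-fold serial dilutions at 10 concentrations in duplicate. Viability by MTS at 96 h as percent of untreated control; IC50 from four-parameter logistic fit.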

[2] = test system: N87 (gastric cancer) cells; experiment: In vitro cell assay (MTS cell viability), N87
Procedure, shortened: as §1

[3] = test system: BT474 (breast cancer) cells; experiment: In vitro cell assay (MTS cell viability), BT474
Procedure, shortened: as §1

Structure (SMILES): CC(=O)O[C@@H](C)/C=C\C(=O)N[C@@H]1C[C@H](C)[C@H](C/C=C(C)/C=C/[C@@H]2C[C@]3(CO3)C[C@@H](CC(=O)N(C)Cc3ccc(S(=O)(=O)N(C)C)cc3)O2)O[C@@H]1C [#B96, (2S,3Z)-5-{[(2R,3R,5S,6S)-6-{(2E,4E)-5-[(3S,5S,7S)-7-(2-{[4-(dimethylsulfamoyl)benzyl](methyl)amino}-2-oxoethyl)-1,6-dioxaspiro[2.5]oct-5-yl]-3-methylpenta-2,4-dien-1-yl}-2,5-dimethyltetrahydro-2H-pyran-3-yl]amino}-5-oxopent-3-en-2-yl acetate]
- IC50 ([1]; 96 h): 0.0315 µM
- IC50 ([2]; 96 h): 0.0123 µM
- IC50 ([3]; Homo sapiens, BT-474): 0.0229 µM

Structure (SMILES): CC(=O)O[C@@H](C)/C=C\C(=O)N[C@@H]1C[C@H](C)[C@H](C/C=C(C)/C=C/[C@@H]2C[C@]3(CO3)C[C@@H](CC(=O)NCc3ccc(S(N)(=O)=O)cc3)O2)O[C@@H]1C [#B97, (2S,3Z)-5-{[(2R,3R,5S,6S)-2,5-dimethyl-6-{(2E,4E)-3-methyl-5-[(3S,5S,7S)-7-{2-oxo-2-[(4-sulfamoylbenzyl)amino]ethyl}-1,6-dioxaspiro[2.5]oct-5-yl]penta-2,4-dien-1-yl}tetrahydro-2H-pyran-3-yl]amino}-5-oxopent-3-en-2-yl acetate]
- IC50 ([1]; 96 h): 0.0416 µM
- IC50 ([2]; 96 h): 0.00509 µM
- IC50 ([3]; Homo sapiens, BT-474): 0.00883 µM

Structure (SMILES): CC(=O)O[C@@H](C)/C=C\C(=O)N[C@@H]1C[C@H](C)[C@H](C/C=C(C)/C=C/[C@@H]2C[C@]3(CO3)C[C@@H](CC(=O)NCc3ccc(S(=O)(=O)N(C)C)cc3)O2)O[C@@H]1C [#B98, (2S,3Z)-5-{[(2R,3R,5S,6S)-6-{(2E,4E)-5-[(3S,5S,7S)-7-(2-{[4-(dimethylsulfamoyl)benzyl]amino}-2-oxoethyl)-1,6-dioxaspiro[2.5]oct-5-yl]-3-methylpenta-2,4-dien-1-yl}-2,5-dimethyltetrahydro-2H-pyran-3-yl]amino}-5-oxopent-3-en-2-yl acetate]
- IC50 ([1]; 96 h): 0.0087 µM
- IC50 ([2]; 96 h): 0.00255 µM
- IC50 ([3]; Homo sapiens, BT-474): 0.00575 µM

Structure (SMILES): CC(=O)O[C@@H](C)/C=C\C(=O)N[C@@H]1C[C@H](C)[C@H](C/C=C(C)/C=C/[C@@H]2C[C@]3(CO3)C[C@@H](CC(=O)NCCS(C)(=O)=O)O2)O[C@@H]1C [#B99, (2S,3Z)-5-{[(2R,3R,5S,6S)-2,5-dimethyl-6-{(2E,4E)-3-methyl-5-[(3S,5S,7S)-7-(2-{[2-(methylsulfonyl)ethyl]amino}-2-oxoethyl)-1,6-dioxaspiro[2.5]oct-5-yl]penta-2,4-dien-1-yl}tetraydro-2H-pyran-3-yl]amino}-5-oxopent-3-en-2-yl acetate]
- IC50 [1]: 0.0215 µM
- IC50 [2]: 0.00328 µM
- IC50 [3]: 0.00787 µM

Structure (SMILES): CC(=O)O[C@@H](C)/C=C\C(=O)N[C@@H]1C[C@H](C)[C@H](C/C=C(C)/C=C/[C@@H]2C[C@]3(CO3)C[C@@H](CC(=O)NCc3ccc(N)cc3)O2)O[C@@H]1C [#B100, (2S,3Z)-5-{[(2R,3R,5S,6S)-6-{(2E,4E)-5-[(3S,5S,7S)-7-{2-[(4-aminobenzyl)amino]-2-oxoethyl}-1,6-dioxaspiro[2.5]oct-5-yl]-3-methylpenta-2,4-dien-1-yl}-2,5-dimethyltetrahydro-2H-pyran-3-yl]amino}-5-oxopent-3-en-2-yl acetate]
- IC50 ([1]; 96 h): 0.0169 µM
- IC50 ([2]; 96 h): 0.00505 µM
- IC50 ([3]; Homo sapiens, BT-474): 0.0106 µM

Structure (SMILES): CC(=O)O[C@@H](C)/C=C\C(=O)N[C@@H]1C[C@H](C)[C@H](C/C=C(C)/C=C/[C@@H]2C[C@]3(CO3)C[C@@H](CC(=O)NCc3ccccc3)O2)O[C@@H]1C [#B101, (2S,3Z)-5-({(2R,3R,5S,6S)-6-[(2E,4E)-5-{(3S,5S,7S)-7-[2-(benzylamino)-2-oxoethyl]-1,6-dioxaspiro[2.5]oct-5-yl}-3-methylpenta-2,4-dien-1-yl]-2,5-dimethyltetrahydro-2H-pyran-3-yl}amino)-5-oxopent-3-en-2-yl acetate]
- IC50 ([1]; 96 h): 0.0348 µM
- IC50 ([2]; 96 h): 0.0104 µM
- IC50 ([3]; Homo sapiens, BT-474): 0.0256 µM
